Among the data in the NIST ThermoML archive (doi:10.1016/j.fluid.2013.08.022) are viscosity and mass density values, retold here.

A short description of this series: wn = mass fraction of the nth substance listed. The following applies: 298.15 K, 101 kPa, Liquid; for viscosity: Cone and plate viscometry; for mass density: Vibrating tube method.

On to `CC#N` [acetonitrile] + CCOC(=O)OCC, for which, for the setting “w1 = 1”, the viscosity is 0.34 mPa·s and the mass density was 776.85 kg/m3.
For `CCOC(=O)OCC` [diethyl carbonate] + CC#N, the viscosity reads like this: (w2 = 0) 0.74 mPa·s; (w2 = 0.25) 0.65 mPa·s; (w2 = 0.5) 0.57 mPa·s; (w2 = 0.75) 0.45 mPa·s. The mass density is, setting by setting: (w2 = 0) 969.17 kg/m3; (w2 = 0.25) 921.12 kg/m3; (w2 = 0.5) 873.25 kg/m3; (w2 = 0.75) 824.87 kg/m3.

By viscosity is commonly meant the resistance of a fluid to flow. In general, mass density refers to the mass of a sample divided by its volume.
